Assay results as given in ChEMBL document CHEMBL4316583, “In Vitro and in Vivo Antitumor Effects of Plant-Derived Miliusanes and Their Induction of Cellular Senescence” (J Med Chem, 2019).
The source made the active and inactive calls. The calls are words filed in the database; no cut-off is given here.

Experiments:
[1] = test system: HCT-116; test: Cytotoxicity against human HCT116 cells assessed as cell growth inhibition after 24 hrs by sulforhodamine B assay; assay type: functional, cell-based; details: HCT-116, 24 h
[2] = test system: HCT-116; test: Cytotoxicity against human HCT116 cells assessed as cell growth inhibition after 48 hrs by sulforhodamine B assay; assay type: functional, cell-based; details: HCT-116, 48 h
[3] = test system: A-375; test: Cytotoxicity against human A375 cells assessed as cell growth inhibition after 48 hrs by sulforhodamine B assay; assay type: functional, cell-based; details: A-375, 48 h
[4] = test system: A549; test: Cytotoxicity against human A549 cells assessed as cell growth inhibition after 48 hrs by sulforhodamine B assay; assay type: functional, cell-based; details: A549, 48 h
[5] = test system: Panel NCI-60 (60 carcinoma cell lines); test: Growth inhibition human NCI60 cells after 48 hrs by sulforhodamine B assay; assay type: functional
[6] = test system: HCT-116; test: Antiproliferative activity against human HCT116 cells assessed as inhibition of colony formation at 0.58 to 2.31 uM after 14 days by crystal violet-staining based assay; assay type: functional, cell-based
[7] = test system: HCT-116; test: Induction of cellular senescence in human HCT116 cells assessed as up-regulation of p21 protein expression at 0.1 to 0.4 ug/ml after 48 hrs by Western blot analysis; assay type: functional, cell-based
[8] = test system: HCT-116; test: Antiproliferative activity against human HCT116 cells xenografted in BALB/c mouse at 20 mg/kg, administered every other day for 3 weeks by Ki67-staining based assay; assay type: functional, organism-based
[9] = test system: HCT-116; test: Antitumor activity against human HCT116 cells xenografted in nude BALB/c mouse assessed as tumor growth inhibition at 20 mg/kg, ip administered every other day for 21 days relative to control; assay type: functional; details: HCT-116, ip, 504 h, read-out: TGI
[10] = test system: HCT-116; test: Antitumor activity against human HCT116 cells xenografted in nude BALB/c mouse assessed as tumor growth inhibition at 40 mg/kg, ip administered every other day for 21 days relative to control; assay type: functional; details: HCT-116, ip, 504 h, read-out: TGI
[11] = Toxicity in nude BALB/c mouse xenografted with human HCT116 cells assessed as body weight loss at 20 to 40 mg/kg, administered every other day for 21 days; assay type: organism-based; details: in vivo, 504 h
[12] = test system: HCT-116; test: Induction of cellular senescence in human HCT116 cells assessed as up-regulation of p21 protein expression at 0.2 to 0.8 ug/ml after 48 hrs by Western blot analysis; assay type: functional, cell-based
[13] = test system: Mus musculus; test: Induction of cellular senescence in BALB/c mouse xenografted with human HCT116 cells assessed as up-regulation of p21 protein expression at 20 mg/kg, administered every other day for 3 weeks by immunohistochemical analysis; assay type: functional, organism-based
[14] = test system: Mus musculus; test: Effect on p27 protein expression in BALB/c mouse xenografted with human HCT116 cells at 20 mg/kg, administered every other day for 3 weeks by immunohistochemical analysis; assay type: functional, organism-based
[15] = test system: HT-29; test: Growth inhibition human HT-29 cells after 72 hrs by MTS assay; assay type: functional, cell-based
[16] = test system: HCT-116; test: Antiproliferative activity against human HCT116 cells assessed as inhibition of colony formation at 0.91 to 3.64 uM after 14 days by crystal violet-staining based assay; assay type: functional, cell-based
[17] = test system: Mus musculus; test: Induction of cellular senescence in BALB/c mouse xenografted with human HCT116 cells assessed as up-regulation of p16 protein expression at 20 mg/kg, administered every other day for 3 weeks by immunohistochemical analysis; assay type: functional, organism-based
[18] = test system: HCT-116; test: Induction of cellular senescence in human HCT116 cells at 11.5 uM after 48 hrs by SA-beta-gal-staining based assay; assay type: functional, cell-based
[19] = test system: HCT-116; test: Induction of apoptosis in human HCT116 cells assessed as late apoptotic cells at 11.5 uM after 48 hrs by annexin V/propidium iodide-double staining based flow cytometry (reference value: 4.6%); assay type: functional
[20] = test system: HCT-116; test: Induction of apoptosis in human HCT116 cells assessed as viable cells at 11.5 uM after 48 hrs by annexin V/propidium iodide-double staining based flow cytometry (reference value: 88.3%); assay type: functional; details: HCT-116, 48 h, read-out: Activity
[21] = test system: HCT-116; test: Induction of apoptosis in human HCT116 cells assessed as early apoptotic cells at 11.5 uM after 48 hrs by annexin V/propidium iodide-double staining based flow cytometry (reference value: 4.8%); assay type: functional
[22] = test system: HCT-116; test: Induction of apoptosis in human HCT116 cells assessed as necrotic cells at 11.5 uM after 48 hrs by annexin V/propidium iodide-double staining based flow cytometry (reference value: […]); assay type: functional
[23] = test system: HCT-116; test: Antitumor activity against human HCT116 cells xenografted in nude BALB/c mouse assessed as tumor growth inhibition at 25 mg/kg, ip administered every other day for 21 days relative to control; assay type: functional; details: HCT-116, ip, 504 h, read-out: TGI
[24] = test system: HCT-116; test: Growth inhibition human HCT116 cells after 72 hrs by MTS assay; assay type: functional, cell-based; details: HCT-116, 72 h
[25] = Ratio of IC50 for human A2780DDP cells to IC50 for human A2780 cells after 72 hrs by MTS assay; assay type: functional
[26] = Ratio of IC50 for human HCT116/VP35 cells to IC50 for human HCT116 cells after 72 hrs by MTS assay; assay type: functional
[27] = Ratio of IC50 for human HCT116/VM46 cells to IC50 for human HCT116 cells after 72 hrs by MTS assay; assay type: functional
[28] = test system: A2780; test: Growth inhibition human A2780 cells after 72 hrs by MTS assay; assay type: functional, cell-based; details: A2780, 72 h
[29] = Ratio of IC50 for human A2780/TAX cells to IC50 for human A2780 cells after 72 hrs by MTS assay; assay type: functional

## CC(=O)O[C@@H]1C=CC(=O)[C@@]2(CC(=O)O[C@@H]2/C=C(\C)CCC=C(CO)CO)C1
[1]
  IC50: 12.9 µM
[2]
  IC50: 13.7 µM

## CC(=O)O[C@@H]1C=C[C@@H](O)[C@@]2(CC(=O)O[C@@H]2/C=C(\C)CCC=C(C)C)C1
[2]
  IC50: 13.3 µM
[3]
  IC50: 7.24 µM
[4]
  IC50: 18.3 µM

## CC(=O)O[C@@H]1CCC(=O)[C@@]2(CC(=O)O[C@@H]2/C=C(\C)CCC=C(C)C)C1
[1]
  IC50: > 30 µM
[2]
  IC50: > 30 µM

## CC(=O)O[C@@H]1C=CC(=O)[C@@](C/C=C(\C)CCC=C(C)C)(CC(=O)O)C1
[2]
  IC50: > 57.5 µM
[3]
  IC50: > 57.5 µM
[4]
  IC50: > 57.5 µM

## COC(=O)C[C@@]1(C/C=C(\C)CCC=C(C)C)C[C@H](OC(C)=O)C=C[C@H]1O
[2]
  IC50: 18.3 µM
[3]
  IC50: 11.6 µM
[4]
  IC50: 18 µM

## CC(=O)O[C@@H]1C=CC(=O)[C@@]2(CC(=O)O[C@@H]2/C=C(\C)CCC=C(C)C)C1
[5]
  GI50: 0.03 to 4.79 µM
[1]
  IC50: 3.94 µM
[2]
  IC50: 1.97 to 2.7 µM
[3]
  IC50: 1.67 µM
[6]
  Activity: Active
[7]
  Activity: Active
[4]
  IC50: 6.97 µM

## CO[C@@H]1CC(=O)[C@@]2(CC(=O)O[C@@H]2/C=C(\C)CCC=C(C)C)C[C@@H]1O
[5]
  GI50: 0.03 to 4.79 µM
[2]
  IC50: 3.5 µM
[3]
  IC50: 3.7 µM
[4]
  IC50: 4.36 µM

## COC(=O)[C@H](O)[C@@]1(C/C=C(\C)CCC=C(C)C)C[C@H](OC(C)=O)C=CC1=O
[2]
  IC50: 4.1 µM
[3]
  IC50: 3.6 µM
[4]
  IC50: 7.15 µM

## CC(=O)O[C@H]1C[C@]2(CC(=O)O[C@@H]2/C=C(\C)CCC=C(C)C)C(=O)C[C@H]1Nc1ccccc1
[8]
  Activity: Active
[9]
  inhibition in vivo at 20 mg/kg: 36.4%
[1]
  IC50: 2.93 µM
[10]
  inhibition in vivo at 40 mg/kg: 36.4%
[2]
  IC50: 2.5 µM
[11]
  Activity: Non-Toxic
[12]
  Activity: Active
[13]
  Activity: Active
[14]
  Activity: inactive
[15]
  growth inhibition (GI): Active
[16]
  Activity: Active
[17]
  Activity: Active

## CO[C@H]1CC(=O)[C@@]2(CC(=O)O[C@@H]2/C=C(\C)CCC=C(C)C)C[C@@H]1O
[2]
  IC50: 17.2 µM
[3]
  IC50: 9.86 µM
[4]
  IC50: 18.4 µM

## CC(=O)O[C@@H]1C=CC(=O)[C@@]2(CC(=O)O[C@@H]2/C=C(\C)C/C=C/C(C)(C)O)C1
[2]
  IC50: 4.2 µM
[3]
  IC50: 4.25 µM
[4]
  IC50: 20.8 µM

## O=c1[nH]cc(F)c(=O)[nH]1 [FLUOROURACIL]
[18]
  Activity: Active
[19]
  Activity: 12.6%
[20]
  viability at 11.5 µM: 78.3%
[21]
  Activity: 4.7%
[22]
  Activity: 4.4%
[23]
  inhibition in vivo at 25 mg/kg: 32.5%

## CC(=O)O[C@H]1C[C@]2(CC(=O)O[C@@H]2/C=C(\C)CCC=C(C)C)C(=O)C[C@@H]1Nc1ccccc1
[9]
  inhibition in vivo at 20 mg/kg: 31.1%
[1]
  IC50: 3.43 µM
[10]
  inhibition in vivo at 40 mg/kg: -8.6%
[2]
  IC50: 2.63 µM
[11]
  Activity: Non-Toxic

## CC(=O)O[C@H]1C[C@]2(CC(=O)O[C@@H]2/C=C(\C)CCC=C(C)C)C(=O)C[C@H]1N(C(=O)c1ccccc1)c1ccccc1
[1]
  IC50: 14 µM
[2]
  IC50: 10.4 µM

## CC(=O)O[C@@H]1C=CC(=O)[C@@]2(CC(=O)O[C@@H]2/C=C(\C)CCCC(C)C=O)C1 (some centres undefined)
[1]
  IC50: 7.18 µM
[2]
  IC50: 5.49 µM

## CC(=O)O[C@@H]1C=CC(=O)[C@@]2(CC(=O)O[C@@H]2CC(C)CCCC(C)C)C1 (some centres undefined)
[1]
  IC50: 1.95 µM
[2]
  IC50: 1.95 µM

## CC(C)=CCC/C(C)=C/[C@H]1OC(=O)C[C@]12C[C@H](O)C=C[C@H]2O
[2]
  IC50: > 65 µM
[3]
  IC50: > 65 µM
[4]
  IC50: > 65 µM

## COC(=O)C[C@@]1(C/C=C(\C)CCC=C(C)C)C[C@H](OC(C)=O)C=CC1=O
[2]
  IC50: 13 µM
[3]
  IC50: 10.4 µM
[4]
  IC50: 24.5 µM

## CC(=O)O[C@@H]1C=CC(=O)[C@@]2(CC(=O)O[C@@H]2/C=C(\C)CC/C=C(\C)CO)C1
[1]
  IC50: 6.97 µM
[2]
  IC50: 5.85 µM

## CC(=O)O[C@H]1C[C@]2(CC(=O)O[C@@H]2/C=C(\C)CCC=C(C)C)C(OC(=O)c2ccccc2)=C[C@H]1N(C(=O)c1ccccc1)c1ccccc1
[1]
  IC50: > 30 µM
[2]
  IC50: > 30 µM

## CC(=O)O[C@@H]1CC[C@@H](OC(C)=O)[C@@]2(CC(=O)O[C@@H]2/C=C(\C)CCC=C(C)C)C1
[1]
  IC50: > 30 µM
[2]
  IC50: > 30 µM

## CC(=O)O[C@@H]1CCC(=O)[C@@]2(CC(=O)O[C@@H]2CC(C)CCCC(C)C)C1 (some centres undefined)
[1]
  IC50: > 30 µM
[2]
  IC50: > 30 µM

## CC(=O)O[C@@H]1CC[C@@H](O)[C@@]2(CC(=O)O[C@@H]2/C=C(\C)CCC=C(C)C)C1
[1]
  IC50: > 30 µM
[2]
  IC50: > 30 µM

## COc1cc([C@@H]2c3cc4c(cc3[C@@H](O[C@@H]3O[C@@H]5CO[C@@H](C)O[C@H]5[C@H](O)[C@H]3O)[C@H]3COC(=O)[C@H]23)OCO4)cc(OC)c1O [ETOPOSIDE]
[24]
  IC50: 0.41 µM
[25]
  Ratio IC50: 2.5
[26]
  Ratio IC50: 7.4
[27]
  Ratio IC50: 13.5
[28]
  IC50: 0.07 µM
[29]
  Ratio IC50: 1.7
